Common to all, as to assay type: cell-based
Test [1] deals with MYB mRNA. The test is described as follows: Splicing RT-qPCR assay (THP), Table 2A. The conditions noted are these: Table 2A, THP; for AC50: MYB alternative junction (AJ) mRNA, read-out: MYB AJ (AC50, increase in alternative junction mRNA); for IC50: MYB canonical junction (CJ) mRNA, read-out: MYB CJ (IC50, decrease in canonical junction mRNA).
Test [2] relates to HTT mRNA. The test is described as follows: Gene panel canonical junction qPCR assay, decrease in CJ mRNA, Table 3. Conditions: decrease in CJ mRNA levels, canonical junction qPCR, gene panel. An outline of the steps:
(§1)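 Canonical exon-junction (CJ) transcript measured by 5′ nuclease RT-qPCR, normalized to GAPDH, GUSB or PPIA and to DMSO control (2^(−ΔΔCt)). A673 or K562 cells treated 24 h at 37° C with an 11-point 3-fold dilution series, top 10 uM, DMSO ≤0.25%. IC50 from 4-parameter logistic fit of percentage CJ decrease.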
For orientation: In qPCR the cycle at which signal appears reflects the starting amount.

Test [3] relates to MYB mRNA. The description is as above. The conditions noted are these: decrease in CJ mRNA levels, canonical junction qPCR, gene panel. An outline of the steps: as §1
Test [4] deals with HTT mRNA. The test is described as follows: Splicing RT-qPCR assay (THP), Table 2A. Conditions: Table 2A, THP; for AC50: HTT alternative junction (AJ) mRNA, read-out: HTT AJ (AC50, increase in alternative junction mRNA); for IC50: HTT canonical junction (CJ) mRNA, read-out: HTT CJ (IC50, decrease in canonical junction mRNA).
The test system of test [5] is SH-SY5Y (human neuroblastoma) cells. Put plainly: Cell viability, Cell Titer Glo 2.0 assay. The conditions noted are these: read-out: Viability SHSY5Y.3 GI50. An outline of the steps:
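SH-SY5Y cells were exposed to serially diluted compounds in IMDM with 10% FBS and 0.1% DMSO for 72 hours at 37° C., 5% CO2. Viability was measured by CellTiter-Glo 2.0 luminescence, with medium-only wells as blank.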
A general note: Cellular ATP, detected with luciferase, serves as a proxy for viable cell number.

Broadly, the AC50 is the midpoint of the concentration-response curve, whichever way the signal moves. As usually defined, the IC50 is the concentration that gives 50% inhibition. By GI50 is commonly meant the concentration at which growth is held to half of that of the control.

`COc1nc2c(C(=O)Nc3cn4cc(C)nc4c(F)c3OC)ccc(N3C[C@H](C)N[C@@H](C)C3)c2s1` [Compound 764, 7-((3S,5S)-3,5-dimethylpiperazin-1-yl)-N-(8-fluoro-7-methoxy-2-methylimidazo[1,2-a]pyridin-6-yl)-2-methoxybenzo[d]thiazole-4-carboxamide 2,2,2-trifluoroacetate]: the AC50 was less than 100 nM in test [1] and more than 10000 nM in test [4]. Further, the IC50 in test [1] was less than 100 nM; in test [2], 1000 to 10000 nM; in test [3], less than 100 nM; in test [4] it was 1000 to 10000 nM. In test [5], the GI50 fell in the range of 100 to 1000 nM.

Take `COc1nc2c(C(=O)Nc3cc(F)c4nn(C)cc4c3)ccc(N3CCN[C@H](C)C3)c2s1` [Compound 765]: the AC50 in test [1] was less than 100 nM; in test [4], 100 to 1000 nM. Moreover, the IC50 in test [1] is less than 100 nM; in test [2], 100 to 1000 nM; in test [3], less than 100 nM; in test [4], 100 to 1000 nM. In addition, in test [5], the GI50 lay within 100 to 1000 nM.

Regarding `COc1nc2c(C(=O)Nc3cc(F)c4nn(C)cc4c3)ccc(N3CCN[C@@H](C)C3)c2s1` [Compound 766], the half-maximal activity concentration (AC50) in test [1] and in test [4] was less than 100 nM throughout. Also, the IC50 in test [1], in test [2], in test [3] and in test [4] was less than 100 nM throughout. Also, the GI50 in test [5] was less than 100 nM.

As to `COc1nc2c(C(=O)Nc3cc(F)c4nn(C)cc4c3)ccc(N3C[C@H](C)N(C)[C@@H](C)C3)c2s1` [Compound 767, N-(7-fluoro-2-methyl-indazol-5-yl)-2-methoxy-7-[(3S,5S)-3,4,5-trimethylpiperazin-1-yl]-1,3-benzothiazole-4-carboxamide], the results for the AC50 in test [1] and in test [4] were less than 100 nM and 1000 to 10000 nM, respectively. The 50% inhibitory concentration (IC50) in test [1] is less than 100 nM; in test [2] it was 1000 to 10000 nM; in test [3] it was less than 100 nM; in test [4], 1000 to 10000 nM. In addition, in test [5], the GI50 fell in the range of 100 to 1000 nM.

As to `COc1nc2c(C(=O)Nc3cc(F)c4nn(C)cc4c3)ccc(N3CCC4(CCCN4)CC3)c2s1` [Compound 768], the AC50 in test [1] and in test [4] was less than 100 nM in each case. Also, the IC50 in test [1], in test [2], in test [3] and in test [4] was less than 100 nM throughout. The GI50 in test [5] fell in the range of 100 to 1000 nM.

With `COc1nc2c(C(=O)Nc3cc(F)c4nn(C)cc4c3)ccc(N3CC[C@@H](NC(C)(C)C)C3)c2s1` [Compound 769], the AC50 in test [1] was less than 100 nM; in test [4], 100 to 1000 nM. In addition, the half-inhibitory concentration (IC50) is less than 100 nM in test [1], 100 to 1000 nM in test [2], less than 100 nM in test [3] and 100 to 1000 nM in test [4]. In addition, the GI50 in test [5] was 100 to 1000 nM.

For `COc1nc2c(C(=O)Nc3cc(F)c4nn(C)cc4c3)ccc(N3CC[C@H](NC(C)(C)C)C3)c2s1` [Compound 770], the AC50 in test [1] and in test [4] was 100 to 1000 nM each time. Besides, the IC50 in test [1], in test [2], in test [3] and in test [4] was 100 to 1000 nM each time. In addition, the GI50 in test [5] fell in the range of 100 to 1000 nM.

Consider `COc1nc2c(C(=O)Nc3cc(F)c4nn(C)cc4c3)ccc(N3CCNC(C)C3C)c2s1` (stereo not shown) [Compound 771, 7-(2,3-dimethylpiperazin-1-yl)-N-(7-fluoro-2-methyl-indazol-5-yl)-2-methoxy-1,3-benzothiazole-4-carboxamide], for which the AC50 is 100 to 1000 nM in test [1] and more than 10000 nM in test [4]. The IC50 in test [1] was 100 to 1000 nM; in test [2], 1000 to 10000 nM; in test [3], 100 to 1000 nM; in test [4] it was 1000 to 10000 nM. In addition, in test [5], the concentration for 50% growth inhibition (GI50) lay within 100 to 1000 nM.

On to `COc1nc2c(C(=O)Nc3cc(F)c4nn(C)cc4c3)ccc(N3CC(C)NCC3C)c2s1` (stereo not shown) [Compound 772, 7-(2,5-dimethylpiperazin-1-yl)-N-(7-fluoro-2-methyl-indazol-5-yl)-2-methoxy-1,3-benzothiazole-4-carboxamide], for which the AC50 was 100 to 1000 nM in test [1] and more than 10000 nM in test [4]. The concentration for half-maximal inhibition (IC50) was 1000 to 10000 nM in test [1], more than 10000 nM in test [2], 1000 to 10000 nM in test [3] and more than 10000 nM in test [4]. The GI50 in test [5] was in the range of 1000 to 10000 nM.

As for `Cc1cn2cc(NC(=O)c3ccc(N4CCC(NC5CC5)CC4)c4cn(C)nc34)nc2c(Cn2cccn2)n1` [Compound 773, 4-[4-(cyclopropylamino)-1-piperidyl]-2-methyl-N-[6-methyl-8-(pyrazol-1-ylmethyl)imidazo[1,2-a]pyrazin-2-yl]indazole-7-carboxamide], the concentration at half-maximal activity (AC50) in test [1] and in test [4] was 1000 to 10000 nM throughout. Further, the IC50 in test [1], in test [2], in test [3] and in test [4] was 1000 to 10000 nM throughout. Besides, in test [5], the GI50 was 1000 to 10000 nM.

Turning to `Cc1cn2cc(NC(=O)c3ccc(N4CCC(NC5CC5)CC4)c4cn(C)nc34)nc2c(CN2CCCS2(=O)=O)n1` [Compound 774, 4-[4-(cyclopropylamino)-1-piperidyl]-N-[8-[(1,1-dioxo-1,2-thiazolidin-2-yl)methyl]-6-methyl-imidazo[1,2-a]pyrazin-2-yl]-2-methyl-indazole-7-carboxamide], the half-maximal activity concentration (AC50) in test [1] and in test [4] was more than 10000 nM throughout. Also, the IC50 in test [1], in test [2], in test [3] and in test [4] was more than 10000 nM throughout. In test [5], the GI50 is more than 10000 nM.

Regarding `Cc1cn2cc(NC(=O)c3ccc(N4CCC(NC5CC5)CC4)c4cn(C)nc34)nc2c(Cn2cnc(C(N)=O)c2)n1` [Compound 775, N-(8-((4-carbamoyl-1H-imidazol-1-yl)methyl)-6-methylimidazo[1,2-a]pyrazin-2-yl)-4-(4-(cyclopropylamino)piperidin-1-yl)-2-methyl-2H-indazole-7-carboxamide 2,2,2-trifluoroacetate], the AC50 in test [1] and in test [4] was more than 10000 nM each time. For the same compound, the IC50 in test [1], in test [2], in test [3] and in test [4] was more than 10000 nM throughout. Moreover, in test [5], the 50% growth inhibitory concentration (GI50) is more than 10000 nM.

For `Cc1cn2cc(NC(=O)c3ccc(N4CCC(NC5CC5)CC4)c4cn(C)nc34)nc2c(CCN(C)C)n1` [Compound 776], the AC50 in test [1] and in test [4] was more than 10000 nM each time. In addition, the IC50 in test [1], in test [2], in test [3] and in test [4] was more than 10000 nM in each case. Also, the GI50 in test [5] was 1000 to 10000 nM.

Consider `Cc1cn2cc(NC(=O)c3ccc(N4CCC(N(C)C5CC5)CC4)c4cn(C)nc34)nc2c(CNS(C)(=O)=O)n1` [Compound 777], for which the AC50 in test [1] and in test [4] was 1000 to 10000 nM in each case. Further, the IC50 in test [1], in test [2], in test [3] and in test [4] was 1000 to 10000 nM in each case. The GI50 in test [5] is 1000 to 10000 nM.

For the compound `Cc1cn2cc(NC(=O)c3ccc(N4CCC(NC5CC5)CC4)c4cn(C)nc34)nc2c(CCNS(C)(=O)=O)n1` [Compound 778], the AC50 in test [1] and in test [4] was more than 10000 nM throughout. Further, the IC50 in test [1], in test [2], in test [3] and in test [4] was more than 10000 nM each time. Moreover, the GI50 in test [5] is more than 10000 nM.

`CC(=O)NCc1cc(NC(=O)c2ccc(N3CCC(NC4CC4)CC3)c3cn(C)nc23)cc2cn(C)nc12` [Compound 779]: the AC50 was 100 to 1000 nM in test [1] and more than 10000 nM in test [4]. Also, the half-inhibitory concentration (IC50) in test [1] is 100 to 1000 nM; in test [2], more than 10000 nM; in test [3] it was 100 to 1000 nM; in test [4], more than 10000 nM. The GI50 in test [5] is more than 10000 nM.

On to `Cc1nc2c(C(=O)Nc3cc(F)c4nn(C)cc4c3)ccc(N3C[C@H](C)N[C@@H](C)C3)c2s1` [Compound 780], for which the AC50 in test [1] is less than 100 nM; in test [4], 100 to 1000 nM. Besides, the IC50 was less than 100 nM in test [1], 100 to 1000 nM in test [2], less than 100 nM in test [3] and 100 to 1000 nM in test [4]. Also, in test [5], the GI50 is less than 100 nM.

`Cc1cn2cc(NC(=O)c3ccc(N4CCC(NC5CC5)CC4)c4cn(C)nc34)nc2c(Cc2cnc(Cl)s2)n1` [Compound 781]: the AC50 in test [1] and in test [4] was more than 10000 nM in each case. Also, the half-inhibitory concentration (IC50) in test [1], in test [2], in test [3] and in test [4] was more than 10000 nM in each case. The GI50 in test [5] lay within 1000 to 10000 nM.

As to `COc1nc2c(C(=O)Nc3cn4c(C)nc(C)cc4n3)ccc(N3C[C@H](C)N[C@@H](C)C3)c2s1` [Compound 782, N-(5,7-dimethylimidazo[1,2-c]pyrimidin-2-yl)-7-[(3S,5S)-3,5-dimethylpiperazin-1-yl]-2-methoxy-1,3-benzothiazole-4-carboxamide], the concentration at half-maximal activity (AC50) in test [1] was 100 to 1000 nM; in test [4] it was more than 10000 nM. Further, the IC50 is 100 to 1000 nM in test [1], more than 10000 nM in test [2], 100 to 1000 nM in test [3] and more than 10000 nM in test [4]. The GI50 in test [5] lay within 1000 to 10000 nM.
